According to US7135572B2 (CJ Corp, priority 2001, dated 2006):

What was measured:
cyclooxygenase-1 = molecular target: T1, cyclooxygenase-1 (Homo sapiens, UniProt P23219); assay: Inhibition of cyclooxygenase-1 in U-937 cells (PGE2 quantitation); type: cell-based; conditions: U-937 cells
T1 construct: The cultured U-937 (humane lymphoma cell, obtained from Korean cell line bank) was centrifuged to collect the pellet; endogenous in cells; host or cells: U-937 (human lymphoma cell line, Korean cell line bank)
Procedure: (§1) In order to investigate pharmacologically the selective inhibition activity against cyclooxygenase-2 enzyme, the inhibitive effects against cyclooxygenase-1 and cyclooxygenase-2 were measured by two methods as follows.
Then, the pellet was diluted with 1×HBSS(Hank's balanced salt solutin) at the concentration of 1×10^6 cells/ml, and 1 ml of them was transferred into each well of 12-well plates, and then dissolved with DMSO. 5μl of the diluted sample solution, and 5μl of DMSO vehicle were added therein and mixed, and the mixture was cultured at 37° C. in Co2 incubator for 15 minutes. Arachidonic acid as a substrate was dissolved in ethanol to prepare a stock solution with a concentration of 10 mM, followed by diluting with 1×HBSS to prepare the solution of 1 mM. 10 μl of 1 mM Arachidonic acid solution was added to each of the treated wells, and the mixture was cultured at 37° C. in CO2 incubator for 30 minutes. The cell solution of each well was collected in the centrifuge tube and was centrifuged at 4° C. for 5 minutes at 10,000 rpm. As PGE2 existed in the supernatant separated from collected cell, the concentration of PGE2 was quantitated by using monoclonal kit from Cayman Chemicals, and the concentration of samples and vehicle were compared to estimate the inhibition ratio (%) of each compound against cyclooxygenase-1. Ultimately, the inhibition effect against the cyclooxygenase-1 enzyme was obtained from the result.

cyclooxygenase-2 = molecular target: T2, cyclooxygenase-2 (Mus musculus, UniProt Q05769); assay: Inhibition of cyclooxygenase-2 in Raw 264.7 cells treated with interferon γ and LPS (PGE2 EIA); type: cell-based; conditions: for Inhibitory effects of cyclooxygenase (COX): COX-2: Raw 264.7 cells; for selectivity of cyclooxygenase-2 compared with the comparative substance (in words): COX-2 versus COX-1
T2 construct: endogenous in cells; host or cells: Raw 264.7 (Korean cell line bank), aspirin-pretreated, induced with interferon gamma and LPS
T2 sequence (Q05769 18-604): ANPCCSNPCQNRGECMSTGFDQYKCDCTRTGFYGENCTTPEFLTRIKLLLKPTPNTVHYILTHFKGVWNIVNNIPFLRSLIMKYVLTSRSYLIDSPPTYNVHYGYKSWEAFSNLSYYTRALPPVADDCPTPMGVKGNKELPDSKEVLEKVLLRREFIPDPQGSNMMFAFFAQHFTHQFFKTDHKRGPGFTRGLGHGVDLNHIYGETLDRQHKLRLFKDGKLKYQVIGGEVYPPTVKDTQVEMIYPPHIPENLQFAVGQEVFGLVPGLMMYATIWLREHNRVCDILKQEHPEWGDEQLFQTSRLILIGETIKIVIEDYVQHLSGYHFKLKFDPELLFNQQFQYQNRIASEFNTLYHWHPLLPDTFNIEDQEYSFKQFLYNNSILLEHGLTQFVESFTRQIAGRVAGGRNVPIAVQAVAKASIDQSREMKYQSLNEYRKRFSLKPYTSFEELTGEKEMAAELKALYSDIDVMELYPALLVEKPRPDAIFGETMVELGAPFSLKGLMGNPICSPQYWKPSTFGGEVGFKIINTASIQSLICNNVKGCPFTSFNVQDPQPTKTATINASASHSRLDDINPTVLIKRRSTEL
Procedure: as §1
And then, each samples were replaced with new media and cultured for 30 minutes. In addition, the samples was treated with 100 units/ml of interferon Υ and 100 ng/ml of lipopolysaccharide(LPS), and cultured for 18 hours. Then, the media was transferred to other tubes and the PGE 2 was quantitated by using EIA kit from Cayman Chemicals.

T1 sequence (P23219 24-599): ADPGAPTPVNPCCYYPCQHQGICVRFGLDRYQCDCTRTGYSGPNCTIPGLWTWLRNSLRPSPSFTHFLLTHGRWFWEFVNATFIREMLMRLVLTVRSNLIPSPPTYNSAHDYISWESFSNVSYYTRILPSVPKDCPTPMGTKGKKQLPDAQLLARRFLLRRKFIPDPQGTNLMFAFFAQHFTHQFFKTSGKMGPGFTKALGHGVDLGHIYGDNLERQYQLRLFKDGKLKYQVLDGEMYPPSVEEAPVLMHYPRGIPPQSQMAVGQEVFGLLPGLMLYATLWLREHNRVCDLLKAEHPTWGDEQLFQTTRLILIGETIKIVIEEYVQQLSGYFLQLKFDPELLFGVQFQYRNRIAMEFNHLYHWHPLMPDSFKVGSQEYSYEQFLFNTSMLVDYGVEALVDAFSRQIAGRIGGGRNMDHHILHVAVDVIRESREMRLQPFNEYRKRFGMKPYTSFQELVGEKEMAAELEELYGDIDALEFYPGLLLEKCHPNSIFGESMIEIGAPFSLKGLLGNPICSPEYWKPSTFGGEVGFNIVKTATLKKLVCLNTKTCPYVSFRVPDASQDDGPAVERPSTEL

Compound	Inhibitory effects of cyclooxygenase (COX): COX-1 (cyclooxygenase-1; 3 μM) [% inhibition]	Inhibitory effects of cyclooxygenase (COX): COX-1 (cyclooxygenase-1; 10 μM) [% inhibition]	Inhibitory effects of cyclooxygenase (COX): COX-1 (cyclooxygenase-1; 30 μM) [% inhibition]	Inhibitory effects of cyclooxygenase (COX): COX-2 (cyclooxygenase-2; 30 nM) [% inhibition]	Inhibitory effects of cyclooxygenase (COX): COX-2 (cyclooxygenase-2; 100 nM) [% inhibition]	Inhibitory effects of cyclooxygenase (COX): COX-2 (cyclooxygenase-2; 300 nM) [% inhibition]	selectivity of cyclooxygenase-2 compared with the comparative substance (in words) (cyclooxygenase-2)
Cc1nc(-c2ccccc2)n(-c2ccc(S(N)(=O)=O)cc2)n1 [Example 1, 4-(3-methyl-5-phenyl-[1,2,4]triazole-1-yl)-benzenesulfonamide]	12.1	25.9	53.1	48.5	50.0	81.4	
Cc1nc(-c2ccc(F)cc2)n(-c2ccc(S(N)(=O)=O)cc2)n1 [Example 2, 4-[5-(4-fluoro-phenyl)-3-methyl-[1,2,4]triazole-1-yl]-benzenesulfonamide]	36.9	53.4	67.8	28.8	34.4	45.7	
Cc1nc(-c2ccc(Cl)cc2)n(-c2ccc(S(N)(=O)=O)cc2)n1 [Example 3, 4-[5-(4-chloro-phenyl)-3-methyl-[1,2,4]triazole-1-yl]-benzenesulfonamide]	0.1	13.8	29.7	40.0	74.1	82.9	
Cc1nc(-c2ccc(Br)cc2)n(-c2ccc(S(N)(=O)=O)cc2)n1 [Example 4, 4-[5-(4-bromo-phenyl)-3-methyl-[1,2,4]triazole-1-yl]-benzenesulfonamide]	85.6	87.7	91.1	64.2	99.0	99.8	hardly different
Cc1ccc(-c2nc(C)nn2-c2ccc(S(N)(=O)=O)cc2)cc1 [Example 5, 4-(3-methyl-5-p-toly-[1,2,4]triazole-1-yl)-benzenesulfonamide]	48.6	61.1	79.7	45.3	53.3	75.2	
COc1ccc(-c2nc(C)nn2-c2ccc(S(N)(=O)=O)cc2)cc1 [Example 6, 4-[5-(4-methoxy-phenyl)-3-mehtyl-[1,2,4]triazole-1-yl]-benzenesulfonamide]	78.6	85.6	94.5	68.8	99.2	99.9	hardly different
Cc1nc(-c2cccc(F)c2)n(-c2ccc(S(N)(=O)=O)cc2)n1 [Example 7, 4-[5-(3-fluoro-phenyl)-3-methyl-[1,2,4]triazole-1-yl]-benzenesulfonamide]	21.1	24.4	28.1	54.3	55.0	55.3	
Cc1nc(-c2cccc(Cl)c2)n(-c2ccc(S(N)(=O)=O)cc2)n1 [Example 8, 4-[5-(3-chloro-phenyl)-3-methyl-[1,2,4]triazole-1-yl]-benzenesulfonamide]	62.0	75.1	84.7	31.3	52.6	50.5	
Cc1nc(-c2cccc(Br)c2)n(-c2ccc(S(N)(=O)=O)cc2)n1 [Example 9, 4-[5-(3-bromo-phenyl)-3-methyl-[1,2,4]triazole-1-yl]-benzenesulfonamide]	78.7	81.9	89.5	66.5	89.2	99.2	hardly different
COc1cccc(-c2nc(C)nn2-c2ccc(S(N)(=O)=O)cc2)c1 [Example 10, 4-[5-(3-methoxy-phenyl)-3-methyl-[1,2,4]triazole-1-yl]-benzenesulfonamide]	38.8	42.0	45.6	42.1	54.2	68.8	
COc1ccccc1-c1nc(C)nn1-c1ccc(S(N)(=O)=O)cc1 [Example 11, 4-[5-(2-methoxy-phenyl)-3-methyl-[1,2,4]triazole-1-yl]-benzenesulfonamide]	54.0	61.3	67.2	25.0	25.2	37.7	
COc1ccc(-c2nc(C)nn2-c2ccc(S(N)(=O)=O)cc2)cc1OC [Example 12, 4-[5-(3,4-dimethoxy-phenyl)-3-mehtyl-[1,2,4]triazole-1-yl]-benzenesulfonamide]	27.3	34.3	37.7	30.3	55.8	70.4	
COc1cc(OC)cc(-c2nc(C)nn2-c2ccc(S(N)(=O)=O)cc2)c1 [Example 13, 4-[5-(3,5-dimethoxy-phenyl)-3-methyl-[1,2,4]triazole-1-yl]-benzenesulfonamide]	63.8	65.9	76.8	37.9	56.1	59.3	
